Experimental findings from patent EP0549352B1, “Tricyclic compounds as angiotensin II antagonists” (KYOWA HAKKO KOGYO CO., LTD., priority 1991, dated 1993) are described below.

In the experiment the target is T1, AII receptor (Bos taurus, UniProt P25104).
T1 construct: Tissue of bovine adrenal cortex was finely cut and suspended; from tissue; host or cells: bovine adrenal cortex membrane fraction
T1 sequence (P25104 1-359): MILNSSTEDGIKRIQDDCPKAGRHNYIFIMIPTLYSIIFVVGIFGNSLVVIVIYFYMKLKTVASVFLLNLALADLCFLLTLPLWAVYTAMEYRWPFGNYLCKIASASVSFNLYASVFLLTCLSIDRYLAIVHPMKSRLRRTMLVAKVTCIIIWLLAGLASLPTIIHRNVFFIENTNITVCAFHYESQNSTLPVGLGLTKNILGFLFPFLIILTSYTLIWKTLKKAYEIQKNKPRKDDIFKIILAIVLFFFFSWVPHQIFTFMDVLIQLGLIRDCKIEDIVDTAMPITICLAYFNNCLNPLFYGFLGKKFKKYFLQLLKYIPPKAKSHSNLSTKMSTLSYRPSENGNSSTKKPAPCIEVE
In words: Receptor binding test using bovine adrenal cortex ([125I]AII binding). Particulars: test compound 0.1 µM, receptor binding of [125I]AII (2.5 × 10^-10M), bovine adrenal cortex membranes, room temperature, 2 hours; for inhibition at 0.1 µM: read-out: Inhibition Rate (%); for Inhibition Rate (%): 0.1 µM. The method, then: Receptor binding test using bovine adrenal cortex
Tissue of bovine adrenal cortex was finely cut and suspended in a 0.25M sucrose solution containing NaHCO3, ethylenediaminetetraacetic acid (EDTA), leupepsin, pepstatin A and phenylmethanesulfonyl fluoride, followed by homogenization. The homogenate was centrifuged at 3,000 rpm for 10 minutes and the supernatant was centrifuged at 9,000 rpm. Then, the supernatant was further centrifuged at 30,000 rpm for 60 minutes and the precipitate was suspended in NaHCO3-EDTA solution, followed by centrifugation at 30,000 rpm for 60 minutes. The resulting precipitate was suspended in a phosphate buffer and the suspension was used for the binding test as an AII receptor source.
To a test compound or a solvent were added 250 µl of the AII receptor solution prepared above, 250 µl of Tris 50 mM buffer containing 0.2% bovine serum albumin (BSA), and 20 µl of [^125I]AII (2.5 × 10^-10M). The mixture was allowed to stand at room temperature for 2 hours and then filtered through a glass fiber filter (GF/B Wattman). The filter was placed in a test tube and the radioactivity was measured using a gamma-counter.
The inhibitory activity (inhibition rate) of the test compound (0.1 µM) against the receptor binding of [^125I]AII was calculated by the following equation. Inhibition Rate (%) =(1-((Binding Amount in the Presence of a Test Compound)-(Nonspecific Binding Amount))/((Total Binding Amount)-(Nonspecific Binding Amount)))× 100 [formula]
The binding amount in the presence of a test compound is the amount of radioactivity of [^125I]AII bound in the presence of a test compound (0.1 µM).
The total binding amount is the amount of radioactivity of [^125I]AII bound in the absence of a test compound.
The nonspecific binding amount is the amount of radioactivity of [^125I]AII bound in the presence of 1 µM AII.

For orientation: inhibition means the drop in the measured response relative to a control, in per cent.

In the case of `CCc1nc2c(C)cc(C)nc2n1Cc1ccc2c(c1)CCc1ccccc1C2=Cc1nnn[nH]1` (single isomer, unassigned) [Compound 20A, 2-(5,7-Dimethyl-2-ethyl-3H-imidazo[4,5-b]pyridin-3-yl)methyl-5-(1H-tetrazol-5-yl)methylene-5H-10,11-dihydrodibenzo[a,d]cycloheptene], the inhibition at 0.1 µM was 70%. `CCc1nc2c(C)cc(C)nc2n1Cc1ccc2c(c1)CCc1ccccc1C2=Cc1nnn[nH]1` (single isomer, unassigned) [Compound 20B, 2-(5,7-Dimethyl-2-ethyl-3H-imidazo[4,5-b]pyridin-3-yl)methyl-5-(1H-tetrazol-5-yl)methylene-5H-10,11-dihydrodibenzo[a,d]cycloheptene]: the “Inhibition Rate (%)” value worked out at 88%. Consider `CCCc1nc2c(C)cccc2n1Cc1ccc2c(c1)OCc1ccccc1C2=CC(=O)O` [Compound 1, [3-(4-Methyl-2-propylbenzimidazol-1-yl)methyl-6,11-dihydrodibenz[b,e]oxepin-11-yliden]acetic acid], for which the inhibition at 0.1 µM worked out at 43%. As to `CCc1nc2c(C)cc(C)nc2n1Cc1ccc2c(c1)OCc1ccccc1C2=CC(=O)O` [Compound 3, [3-(5,7-Dimethyl-2-ethyl-3H-imidazo[4,5-b]pyridin-3-yl)methyl-6,11-dihydrodibenz[b,e]oxepin-11-yliden]acetic acid], the inhibition at 0.1 µM turned out to be 78%. Regarding `CCc1nc2c(C)cc(C)nc2n1Cc1ccc2c(c1)C=Cc1ccc(F)cc1C2=CC(=O)O` [Compound 4, [2-(5,7-Dimethyl-2-ethyl-3H-imidazo[4,5-b]pyridin-3-yl)methyl-7-fluoro-5H-dibenzo[a,d]cyclohepten-5-yliden]acetic acid], the inhibition at 0.1 µM came to 77%.

On to `CCc1nc2c(C)cc(C)nc2n1Cc1ccc2c(c1)OCc1ccccc1C2=Cc1nnn[nH]1` [Compound 6-E, 3-(5,7-Dimethyl-2-ethyl-3H-imidazo[4,5-b]pyridin-3-yl)methyl-11-(1H-tetrazol-5-yl)methylene-6,11-dihydrodibenz[b,e]oxepine], for which the “Inhibition Rate (%)” value is given as 87%. Regarding `CCc1nc2c(C)cc(C)nc2n1Cc1ccc2c(c1)OCc1ccccc1C2=Cc1nnn[nH]1` [Compound 6-Z, 3-(5,7-Dimethyl-2-ethyl-3H-imidazo[4,5-b]pyridin-3-yl)methyl-11-(1H-tetrazol-5-yl)methylene-6,11-dihydrodibenz[b,e]oxepine], the “Inhibition Rate (%)” value (listed as 6-Z*) is given as 66%.

Consider `CCc1nc2c(C)cc(C)nc2n1Cc1ccc2c(c1)OCc1ccc(Br)cc1C2=CC(=O)O` [Compound 7, [9-Bromo-3-(5,7-dimethyl-2-ethyl-3H-imidazo[4,5-b]pyridin-3-yl)methyl-6,11-dihydrodibenz[b,e]oxepin-11-yliden]acetic acid], for which the inhibition at 0.1 µM was 52%.

For the molecule `CCc1nc2c(C)cc(C)nc2n1Cc1ccc2c(c1)OCc1ccsc1C2=CC(=O)O` [Compound 11, [7-(5,7-Dimethyl-2-ethyl-3H-imidazo[4,5-b]pyridin-3-yl)methyl-4,10-dihydrothieno[3,2-c][1]benzoxepin-10-yliden]acetic acid], the inhibition at 0.1 µM was found to be 84%. Still for that read-out and setting: as for `CCc1nc2c(C)cc(C)nc2n1Cc1ccc2c(c1)C=Cc1sccc1C2=CC(=O)O` [Compound 12, [7-(5,7-Dimethyl-2-ethyl-3H-imidazo[4,5-b]pyridin-3-yl)methyl-4H-benzo[4,5]cyclohepte[1,2-b]thiophen-4-yliden]acetic acid], the figure is 72%; as for `CCc1nc2c(C)cc(C)nc2n1Cc1ccc2c(c1)CCc1ccccc1C2=CC(=O)O` [Compound 16, [2-(5,7-Dimethyl-2-ethyl-3H-imidazo[4,5-b]pyridin-3-yl)methyl-5H-10,11-dihydrodibenzo[a,d]cyclohepten-5-yliden]acetic acid], 91%. Still for that read-out and setting: for `CCc1nc2c(C)cc(C)nc2n1Cc1ccc2c(c1)COc1ccccc1C2=Cc1nnn[nH]1` [Compound 18-Z, 8-(5,7-Dimethyl-2-ethyl-3H-imidazo[4,5-b]pyridin-3-yl)methyl-11-(1H-tetrazol-5-yl)methylene-6,11-dihydrodibenz[b,e]oxepine] the value was 81%.

With `CCc1nc2c(C)cc(C)nc2n1Cc1ccc2c(c1)C=Cc1c(Br)cccc1C2=Cc1nnn[nH]1` [Compound 19, 1-Bromo-8-(5,7-dimethyl-2-ethyl-3H-imidazo[4,5-b]pyridin-3-yl)methyl-5-(1H-tetrazol-5-yl)methylene-5H-dibenzo[a,d]cycloheptene], the inhibition at 0.1 µM was determined as 14%. Take `CCc1nc2c(C)cc(C)nc2n1Cc1ccc2c(c1)SCc1ccccc1C2=Cc1nnn[nH]1` [Compound 22-E, 3-(5,7-Dimethyl-2-ethyl-3H-imidazo[4,5-b]pyridin-3-yl)methyl-11-(1H-tetrazol-5-yl)methylene-6,11-dihydrodibenzo[b,e]thiepine]: the inhibition at 0.1 µM was 80%. Same read-out and setting: as for `CCc1nc2c(C)cc(C)nc2n1Cc1ccc2c(c1)OCc1ccccc1C2CC(=O)O` (centres unmarked) [Compound 23, [3-(5,7-Dimethyl-2-ethyl-3H-imidazo[4,5-b]pyridin-3-yl)methyl-6,11-dihydrodibenz[b,e]oxepin-11-yl]acetic acid], the figure is 61%; as for `CCc1nc2c(C)cc(C)nc2n1Cc1ccc2c(c1)OCc1ccccc1C2Cc1nnn[nH]1` (centres unmarked) [Compound 25, 3-(5,7-Dimethyl-2-ethyl-3H-imidazo[4,5-b]pyridin-3-yl)methyl-11-(1H-tetrazol-5-yl)methyl-6,11-dihydrodibenz[b,e]oxepine], 94%. In the case of `CCc1nc2c(C)cc(C)nc2n1Cc1ccc2c(c1)CCc1ccccc1C2Cc1nnn[nH]1` (centres unmarked) [Compound 28, 2-(5,7-Dimethyl-2-ethyl-3H-imidazo[4,5-b]pyridin-3-yl)methyl-5-(1H-tetrazol-5-yl)methyl-5H-10,11-dihydrodibenzo[a,d]cycloheptene], the inhibition at 0.1 µM turned out to be 83%. Regarding `Cc1cc(C)c2nc(C3CC3)n(Cc3ccc4c(c3)CCc3ccccc3C4Cc3nnn[nH]3)c2n1` (centres unmarked) [Compound 29, 2-(5,7-Dimethyl-2-cyclopropyl-3H-imidazo[4,5-b]pyridin-3-yl)methyl-5-(1H-tetrazol-5-yl)methyl-5H-10,11-dihydrodibenzo[a,d]cycloheptene], the inhibition at 0.1 µM came to 92%.

In the case of `CCc1nc2c(C)cc(C)nc2n1Cc1ccc2c(c1)CCc1ccccc1N2CC(=O)O` [Compound 33, 5-Carboxymethyl-2-(5,7-dimethyl-2-ethyl-3H-imidazo[4,5-b]pyridin-3-yl)methyl-5H-10,11-dihydrodibenz[b,f]azepine], the inhibition at 0.1 µM was 88%.

Turning to `Cc1cc(C)c2nc(C3CC3)n(Cc3ccc4c(c3)CCc3ccccc3N4Cc3nnn[nH]3)c2n1` [Compound 34, 2-(5,7-Dimethyl-2-cyclopropyl-3H-imidazo[4,5-b]pyridin-3-yl)methyl-5-(1H-tetrazol-5-yl)methyl-5H-10,11-dihydrodibenz[b,f]azepine], the inhibition at 0.1 µM stood at 97%. On the same count and under the same terms, as for `CCc1nc2c(C)cc(C)nc2n1Cc1ccc2c(c1)CCc1ccccc1N2Cc1ccccc1C(=O)O` [Compound 38, 2-[[2-(5,7-Dimethyl-2-ethyl-3H-imidazo[4,5-b]pyridin-3-yl)methyl-5H-10,11-dihydrodibenz[b,f]azepin-5-yl]methyl]benzoic acid], the figure is 68%; as for `CCCCC(=O)N(Cc1ccc2c(c1)CCc1ccccc1N2Cc1nnn[nH]1)C(C(=O)O)C(C)C` (centres unmarked) [Compound 40, N-[[5-(1H-Tetrazol-5-yl)methyl-5H-10,11-dihydrodibenz[b,f]azepin-2-yl]methyl]-N-valerylvaline], 95%; as for `CCc1nc2c(C)cc(C)nc2n1Cc1ccc2c(c1)c1ccccc1n2CCc1nnn[nH]1` [Compound 42, 3-(5,7-Dimethyl-2-ethyl-3H-imidazo[4,5-b]pyridin-3-yl)methyl-9-[2-(1H-tetrazol-5-yl)ethyl]carbazole], 85%.
